The results in this text go back to PubChem BioAssay (NCI).

Where “and” joins values, the source holds several entries; their conditions need not be identical. Equal values may be shown once.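 Dose response: 5 concentrations. Exposure: 48 h. Format: 96-well plates. Endpoint: linear interpolation; highest concentration if not reached. GI50: concentration for 50% inhibition of growth. The concentration for full growth arrest is given as TGI.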

Experiment in all cases: growth of human tumour cells (NCI), 48 h
Assay [1] concerns MOLT-4 leukemia.
For assay [2], the system named is HCT-116 colon.
Assay [3] relates to MDA-N.
Assay [4] has as its system M19-MEL melanoma.
For assay [5], the system named is DMS 114 small cell lung.
Assay [6] concerns DMS 273 small cell lung.
In assay [7] the test system is LXFL 529 NSCLC.
Assay [8] has as its system KM20L2 colon.
In assay [9] the test system is SNB-78 CNS.

As to `CCSCC1CC(O)(c2ccccc2)C(c2ccccc2)C(c2ccc(Cl)cc2)O1` (stereo unspecified), in [1], the GI50 is 1.73 µM and the TGI was 9.82 µM. In assay [2], the GI50 is 1.21 µM and the TGI stood at 2.58 µM.

For the compound `CC[C@]1(O)CC(OC2CC(N(C)C)C(O)C(C)O2)c2c(cc3c(c2O)C(=O)c2c(O)cccc2C3=O)[C@@H]1C(=O)OC` (stereo partly specified), the TGI was found to be 0.677 µM in assay [1], 1.92 µM in assay [3] and 10.4 µM in assay [2].

`C[C@@H]1COCCN1c1cc(C2([S@](C)(=N)=O)CC2)nc(-c2ccnc3[nH]ccc23)n1`: in assay [1], the GI50 was 2.58 µM and 3.39 µM; the TGI was 9.54 µM and > 10 µM. In [2], the GI50 was 4.67 µM and 4.53 µM; the TGI is greater than 87.5 µM.

As for `Cc1c(N2CCCC2)cc2c(c1NC(=O)c1ccccc1Cl)C(C)(C)CC2(C)C`, the TGI worked out at 28.5 µM in [3] and 22.8 µM in [2].

Take `CC12CCC3C(CCC4Cc5[nH]c6ccccc6c5CC43C)C1CCC2O` (stereo unspecified): the GI50 in assay [1] is 2.55 µM; in assay [2] it was 0.501 µM. The compound further showed a TGI in assay [1] greater than 100 µM.

In the case of `Cc1ccc(S(=O)(=O)OC2CCN(C)CC2)cc1`, the values for the TGI in assay [1], in [3] and in assay [2] were 36.6 µM, greater than 100 µM and greater than 100 µM, respectively.

Consider `CC(C)[C@]12O[C@H]1[C@@H]1O[C@]13[C@]1(O[C@H]1C[C@H]1C4=C(CC[C@@]13C)C(=O)OC4)[C@@H]2O`, for which the results for the GI50 in [1] and in [2] were 0.0128 µM and less than 0.01 µM, respectively. Further, the figures for the TGI in assay [1], in assay [3] and in [2] were 0.0348 µM, 0.0238 µM and greater than 100 µM, respectively.

In the case of `Clc1ccc(CSC(Cn2ccnc2)c2ccc(Cl)cc2Cl)cc1` (stereo unspecified), the GI50 in assay [1] is 1.72 µM; in assay [2], 1.26 µM. The TGI turned out to be 4.87 µM in assay [1] and 2.51 µM in [2].

As for `C=CC[n+]1c(/C=C/C=C2\N(C)c3ccccc3C2(C)C)sc2ccc(OC)cc21`, the figures for the GI50 in [1] and in assay [2] were 0.309 µM and 0.159 µM, respectively. In addition, the TGI was determined as 5.73 µM in assay [1] and 11.9 µM in [2].

In the case of `OC(c1cccc(-n2ccc(C(F)(F)F)n2)c1)c1cnccc1NC1CCCCCC1` (stereo unspecified), in assay [1], the GI50 was 2.16 µM and the TGI is 4.83 µM. In addition, in [2], the GI50 was 1.79 µM and the TGI was found to be 3.59 µM.

For `CCOC(=O)c1ccc2[nH]c(-c3ccc(S(=O)(=O)F)cc3)cc(=O)c2c1`, the TGI in assay [1] was greater than 100 µM; in assay [3], greater than 100 µM; in assay [2], 76.9 µM.

On to `O=C(O)CCNc1ccccc1C(=O)O`, for which the TGI in assay [1], in [3] and in assay [2] was greater than 100 µM throughout.

For `COc1cc(C(=O)/C=C/c2c(C)n([O-])c3ccc(C)cc3[n+]2=O)cc(OC)c1OC`, in [1], the GI50 is 3.57 µM and the TGI was greater than 29.8 µM. For the same compound, in assay [2], the GI50 was 1.54 µM and the TGI was 2.95 µM.

Turning to `CS/C(=N\C(=S)N(C)C)N(c1ccccc1)c1nc(=[N+](C)C)ss1`, the TGI came to 14.8 µM in [4]; 2.28 µM in [5]; 18.3 µM in assay [1]; 15.4 µM in assay [6]; 15.9 µM in assay [7]; 50.3 µM in assay [8]. For the same compound, the TGI worked out at 21.7 µM in assay [2] and 92.8 µM in assay [9].

`CN(Cc1cnc2nc(N)nc(N)c2n1)c1ccc(C(=O)NC(CCC(=O)O)C(=O)O)cc1C(F)(F)F` (stereo unspecified): the TGI in [1] and in assay [2] was greater than 100 µM throughout.

For the compound `FC(F)(F)Oc1cccc(-c2cnc3ccc(-c4ccncc4)nn23)c1`, in assay [1], the GI50 is 2.17 µM and the TGI stood at 7.73 µM. In assay [2], the GI50 is 0.518 µM and the TGI was greater than 100 µM.

Consider `Cc1cccc(NC(=O)CCc2ccc(N3C(N)=NC(N)=NC3(C)C)cc2)c1`, for which, in [1], the GI50 was 2.7 µM and the TGI was greater than 100 µM. In assay [2], the GI50 was 0.632 µM and the TGI is greater than 100 µM.

`CCCCON(OC(=O)c1ccccc1)C(=O)c1ccccc1`: in assay [1], the GI50 was 53.1 µM and the TGI is greater than 100 µM. Besides, in assay [2], the GI50 was greater than 100 µM and the TGI is greater than 100 µM.

Regarding `CC(=O)NCCc1c2c(c3nccc4c3c1Nc1ccccc1-4)OCS2`, the figures for the GI50 in assay [1], in assay [3] and in [2] were 2.38 µM, 1.45 µM and 2.22 µM, respectively. In addition, the values for the TGI in assay [1] and in [3] were greater than 100 µM and 15.5 µM, respectively.

As to `Cn1cc(-c2ccc3c(Nc4cccc(NC(=O)Nc5cccc(F)c5)c4)ncnc3c2)cn1`, in assay [1], the GI50 was 1.95 µM and the TGI was 14.6 µM. Further, in assay [2], the GI50 is 2.04 µM and the TGI was 7.9 µM.

In the case of `COc1ccc2[nH]c(=O)c3c4ccccc4cn3c2c1`, the GI50 was 0.399 µM in [1] and 0.351 µM in assay [2]. Moreover, the TGI in assay [1] came to 2.23 µM; in assay [2] it was 1.38 µM.

Regarding `N=C(N)c1ccc(OCc2cccc(COc3ccc(C(=N)N)cc3)c2)cc1`, the values for the GI50 in [1] and in assay [2] were 16.3 µM and 5.22 µM, respectively. The TGI in [1] turned out to be 45.4 µM; in assay [2], 16.9 µM.

With `CC[C@]12CCCN3CCc4c(n(c5ccccc45)C(=O)C1)[C@@H]32`, the figures for the TGI in [1], in assay [3] and in assay [2] were greater than 58.2 µM, 4.79 µM and greater than 49.6 µM, respectively.

In the case of `C/C(=N\NC(=O)c1sc(=S)n(C)c1N)c1cc2ccccc2o1`, in assay [1], the GI50 was 3.51 µM and the TGI was 29.1 µM. In addition, in assay [2], the GI50 was 16.2 µM and the TGI turned out to be 32 µM.

Regarding `Nc1ccc2c(c1)C(=O)C(=O)c1c-2nc2ccccn12`, in assay [1], the GI50 was 1.96 µM and the TGI came to 4.88 µM. For the same compound, in assay [2], the GI50 is 1.04 µM and the TGI came to 2.29 µM.
